Assay results reported in US7785828B1 (priority 2003, dated 2010).

What was measured:
Assay type in all cases: cell-based
Septoria tritici = system: Septoria tritici
Fusarium graminearum = system: Fusarium graminearum
Mycosphaerella fijiensis = system: Mycosphaerella fijiensis

## DGVKLCEKASQTWSGHCGNTKHCDNQCKNWEGAKHGACHKRNGKWKCFCYFNC [L7-434] (Defensin like)
Septoria tritici
  Antifungal activity, Septoria tritici (improvement compared to DmAMP1): + (key: + indicating 1- to 5-fold improvement compared to DmAMP1; ++ indicating >5- to 10-fold improvement; +++ indicating >10-fold improvement)
Fusarium graminearum
  Antifungal activity, Fusarium graminearum (improvement compared to DmAMP1): +++ (key: + indicating 1- to 5-fold improvement compared to DmAMP1; ++ indicating >5- to 10-fold improvement; +++ indicating >10-fold improvement)
Mycosphaerella fijiensis
  Antifungal activity, Mycosphaerella fijiensis (improvement compared to DmAMP1): + (key: + indicating 1- to 5-fold improvement compared to DmAMP1; ++ indicating >5- to 10-fold improvement; +++ indicating >10-fold improvement)

## NLCERASKTWSGNCGNTKHCDTQCRNWEGAKHGACHKRSGKWKCFCYFNC (Defensin like) [L9-09]
Septoria tritici
  Antifungal activity, Septoria tritici (improvement compared to DmAMP1): + (key: + indicating 1- to 5-fold improvement compared to DmAMP1; ++ indicating >5- to 10-fold improvement; +++ indicating >10-fold improvement)
Fusarium graminearum
  Antifungal activity, Fusarium graminearum (improvement compared to DmAMP1): +++ (key: + indicating 1- to 5-fold improvement compared to DmAMP1; ++ indicating >5- to 10-fold improvement; +++ indicating >10-fold improvement)
Mycosphaerella fijiensis
  Antifungal activity, Mycosphaerella fijiensis (improvement compared to DmAMP1): + (key: + indicating 1- to 5-fold improvement compared to DmAMP1; ++ indicating >5- to 10-fold improvement; +++ indicating >10-fold improvement)

## NLCEKASKTWTGNCGNTKHCDTQCKSWEGAKHGACHKRNGKWKCFCYFNC (Defensin like) [L5-22]
Septoria tritici
  Antifungal activity, Septoria tritici (improvement compared to DmAMP1): ++ (key: + indicating 1- to 5-fold improvement compared to DmAMP1; ++ indicating >5- to 10-fold improvement; +++ indicating >10-fold improvement)
Fusarium graminearum
  Antifungal activity, Fusarium graminearum (improvement compared to DmAMP1): ++ (key: + indicating 1- to 5-fold improvement compared to DmAMP1; ++ indicating >5- to 10-fold improvement; +++ indicating >10-fold improvement)
Mycosphaerella fijiensis
  Antifungal activity, Mycosphaerella fijiensis (improvement compared to DmAMP1): + (key: + indicating 1- to 5-fold improvement compared to DmAMP1; ++ indicating >5- to 10-fold improvement; +++ indicating >10-fold improvement)

## NLCEKASKTWTGNCGNTKHCDTQCKNWEGAKHGACHVRNGKWKCFCYFNC (Defensin like) [L6-69]
Septoria tritici
  Antifungal activity, Septoria tritici (improvement compared to DmAMP1): +++ (key: + indicating 1- to 5-fold improvement compared to DmAMP1; ++ indicating >5- to 10-fold improvement; +++ indicating >10-fold improvement)
Fusarium graminearum
  Antifungal activity, Fusarium graminearum (improvement compared to DmAMP1): +++ (key: + indicating 1- to 5-fold improvement compared to DmAMP1; ++ indicating >5- to 10-fold improvement; +++ indicating >10-fold improvement)
Mycosphaerella fijiensis
  Antifungal activity, Mycosphaerella fijiensis (improvement compared to DmAMP1): + (key: + indicating 1- to 5-fold improvement compared to DmAMP1; ++ indicating >5- to 10-fold improvement; +++ indicating >10-fold improvement)

## NLCEKASKTWSGNCGNTKHCDNQCKNWEGAAHGACHVRNGKHKCFCYFNC (Defensin like) [L6-70]
Septoria tritici
  Antifungal activity, Septoria tritici (improvement compared to DmAMP1): + (key: + indicating 1- to 5-fold improvement compared to DmAMP1; ++ indicating >5- to 10-fold improvement; +++ indicating >10-fold improvement)
Fusarium graminearum
  Antifungal activity, Fusarium graminearum (improvement compared to DmAMP1): +++ (key: + indicating 1- to 5-fold improvement compared to DmAMP1; ++ indicating >5- to 10-fold improvement; +++ indicating >10-fold improvement)
Mycosphaerella fijiensis
  Antifungal activity, Mycosphaerella fijiensis (improvement compared to DmAMP1): + (key: + indicating 1- to 5-fold improvement compared to DmAMP1; ++ indicating >5- to 10-fold improvement; +++ indicating >10-fold improvement)

## NLCERASKTWSGNCGNTKHCDTQCRSWEGAAHGACHKRSGKWKCFCYFNC (Defensin like) [L9-41]
Septoria tritici
  Antifungal activity, Septoria tritici (improvement compared to DmAMP1): + (key: + indicating 1- to 5-fold improvement compared to DmAMP1; ++ indicating >5- to 10-fold improvement; +++ indicating >10-fold improvement)
Fusarium graminearum
  Antifungal activity, Fusarium graminearum (improvement compared to DmAMP1): ++ (key: + indicating 1- to 5-fold improvement compared to DmAMP1; ++ indicating >5- to 10-fold improvement; +++ indicating >10-fold improvement)
Mycosphaerella fijiensis
  Antifungal activity, Mycosphaerella fijiensis (improvement compared to DmAMP1): + (key: + indicating 1- to 5-fold improvement compared to DmAMP1; ++ indicating >5- to 10-fold improvement; +++ indicating >10-fold improvement)

## DGVKLCEKASQTWSGHCGNTKHCDNQCKNWEGAKHGACHKRSGKWKCFCYFNC (Defensin like) [L7-422]
Septoria tritici
  Antifungal activity, Septoria tritici (improvement compared to DmAMP1): + (key: + indicating 1- to 5-fold improvement compared to DmAMP1; ++ indicating >5- to 10-fold improvement; +++ indicating >10-fold improvement)
Fusarium graminearum
  Antifungal activity, Fusarium graminearum (improvement compared to DmAMP1): + (key: + indicating 1- to 5-fold improvement compared to DmAMP1; ++ indicating >5- to 10-fold improvement; +++ indicating >10-fold improvement)
Mycosphaerella fijiensis
  Antifungal activity, Mycosphaerella fijiensis (improvement compared to DmAMP1): + (key: + indicating 1- to 5-fold improvement compared to DmAMP1; ++ indicating >5- to 10-fold improvement; +++ indicating >10-fold improvement)

## NLCERASKTWTGNCGNTKHCDTQCRSWEGAAHGACHVRSGKHKCFCYFNC (Defensin like) [L5-23]
Septoria tritici
  Antifungal activity, Septoria tritici (improvement compared to DmAMP1): + (key: + indicating 1- to 5-fold improvement compared to DmAMP1; ++ indicating >5- to 10-fold improvement; +++ indicating >10-fold improvement)
Fusarium graminearum
  Antifungal activity, Fusarium graminearum (improvement compared to DmAMP1): + (key: + indicating 1- to 5-fold improvement compared to DmAMP1; ++ indicating >5- to 10-fold improvement; +++ indicating >10-fold improvement)
Mycosphaerella fijiensis
  Antifungal activity, Mycosphaerella fijiensis (improvement compared to DmAMP1): + (key: + indicating 1- to 5-fold improvement compared to DmAMP1; ++ indicating >5- to 10-fold improvement; +++ indicating >10-fold improvement)

## DGVKLCEKASQTWSGNCGNTKHCDTQCRNWEGAKHGACHKRNGKWKCFCYFNC (Defensin like) [L7-174]
Septoria tritici
  Antifungal activity, Septoria tritici (improvement compared to DmAMP1): ++ (key: + indicating 1- to 5-fold improvement compared to DmAMP1; ++ indicating >5- to 10-fold improvement; +++ indicating >10-fold improvement)
Fusarium graminearum
  Antifungal activity, Fusarium graminearum (improvement compared to DmAMP1): +++ (key: + indicating 1- to 5-fold improvement compared to DmAMP1; ++ indicating >5- to 10-fold improvement; +++ indicating >10-fold improvement)
Mycosphaerella fijiensis
  Antifungal activity, Mycosphaerella fijiensis (improvement compared to DmAMP1): + (key: + indicating 1- to 5-fold improvement compared to DmAMP1; ++ indicating >5- to 10-fold improvement; +++ indicating >10-fold improvement)

## NLCERASKTWSGNCGNTKHCDNQCKSWEGAAHGACHKRNGKWKCFCYFNC (Defensin like) [L9-18]
Septoria tritici
  Antifungal activity, Septoria tritici (improvement compared to DmAMP1): ++ (key: + indicating 1- to 5-fold improvement compared to DmAMP1; ++ indicating >5- to 10-fold improvement; +++ indicating >10-fold improvement)
Fusarium graminearum
  Antifungal activity, Fusarium graminearum (improvement compared to DmAMP1): ++ (key: + indicating 1- to 5-fold improvement compared to DmAMP1; ++ indicating >5- to 10-fold improvement; +++ indicating >10-fold improvement)
Mycosphaerella fijiensis
  Antifungal activity, Mycosphaerella fijiensis (improvement compared to DmAMP1): + (key: + indicating 1- to 5-fold improvement compared to DmAMP1; ++ indicating >5- to 10-fold improvement; +++ indicating >10-fold improvement)

## NLCERASKTWSGNCGNTKHCDNQCKSWEGAAHGACHVRNGKHKCFCYFNC (Defensin like) [L6-61]
Septoria tritici
  Antifungal activity, Septoria tritici (improvement compared to DmAMP1): ++ (key: + indicating 1- to 5-fold improvement compared to DmAMP1; ++ indicating >5- to 10-fold improvement; +++ indicating >10-fold improvement)
Fusarium graminearum
  Antifungal activity, Fusarium graminearum (improvement compared to DmAMP1): +++ (key: + indicating 1- to 5-fold improvement compared to DmAMP1; ++ indicating >5- to 10-fold improvement; +++ indicating >10-fold improvement)
Mycosphaerella fijiensis
  Antifungal activity, Mycosphaerella fijiensis (improvement compared to DmAMP1): + (key: + indicating 1- to 5-fold improvement compared to DmAMP1; ++ indicating >5- to 10-fold improvement; +++ indicating >10-fold improvement)

## DGVKLCEKASQTWSGHCGNTKHCDNQCKNWEGAKHGACHKRNGKWKCFCYFNC [L7-350] (Defensin like)
Septoria tritici
  Antifungal activity, Septoria tritici (improvement compared to DmAMP1): + (key: + indicating 1- to 5-fold improvement compared to DmAMP1; ++ indicating >5- to 10-fold improvement; +++ indicating >10-fold improvement)
Fusarium graminearum
  Antifungal activity, Fusarium graminearum (improvement compared to DmAMP1): + (key: + indicating 1- to 5-fold improvement compared to DmAMP1; ++ indicating >5- to 10-fold improvement; +++ indicating >10-fold improvement)
Mycosphaerella fijiensis
  Antifungal activity, Mycosphaerella fijiensis (improvement compared to DmAMP1): + (key: + indicating 1- to 5-fold improvement compared to DmAMP1; ++ indicating >5- to 10-fold improvement; +++ indicating >10-fold improvement)

## NLCERASKTWSGNCGNTKHCDTQCKSWEGAKHGACHVRNGKHKCFCYFNC (Defensin like) [L9-26]
Septoria tritici
  Antifungal activity, Septoria tritici (improvement compared to DmAMP1): +++ (key: + indicating 1- to 5-fold improvement compared to DmAMP1; ++ indicating >5- to 10-fold improvement; +++ indicating >10-fold improvement)
Fusarium graminearum
  Antifungal activity, Fusarium graminearum (improvement compared to DmAMP1): +++ (key: + indicating 1- to 5-fold improvement compared to DmAMP1; ++ indicating >5- to 10-fold improvement; +++ indicating >10-fold improvement)
Mycosphaerella fijiensis
  Antifungal activity, Mycosphaerella fijiensis (improvement compared to DmAMP1): ++ (key: + indicating 1- to 5-fold improvement compared to DmAMP1; ++ indicating >5- to 10-fold improvement; +++ indicating >10-fold improvement)

## NLCEKASKTWTGNCGNTKHCDNQCRNWEGAAHGACHKRSGKWKCFCYFNC (Defensin like) [L9-36]
Septoria tritici
  Antifungal activity, Septoria tritici (improvement compared to DmAMP1): + (key: + indicating 1- to 5-fold improvement compared to DmAMP1; ++ indicating >5- to 10-fold improvement; +++ indicating >10-fold improvement)
Fusarium graminearum
  Antifungal activity, Fusarium graminearum (improvement compared to DmAMP1): + (key: + indicating 1- to 5-fold improvement compared to DmAMP1; ++ indicating >5- to 10-fold improvement; +++ indicating >10-fold improvement)
Mycosphaerella fijiensis
  Antifungal activity, Mycosphaerella fijiensis (improvement compared to DmAMP1): + (key: + indicating 1- to 5-fold improvement compared to DmAMP1; ++ indicating >5- to 10-fold improvement; +++ indicating >10-fold improvement)

## NLCEKASKTWSGNCGNTGHCDTQCKNWEGAKHGACHVRNGKHKCFCYFNC (Defensin like) [L5-12]
Septoria tritici
  Antifungal activity, Septoria tritici (improvement compared to DmAMP1): ++ (key: + indicating 1- to 5-fold improvement compared to DmAMP1; ++ indicating >5- to 10-fold improvement; +++ indicating >10-fold improvement)
Fusarium graminearum
  Antifungal activity, Fusarium graminearum (improvement compared to DmAMP1): ++ (key: + indicating 1- to 5-fold improvement compared to DmAMP1; ++ indicating >5- to 10-fold improvement; +++ indicating >10-fold improvement)
Mycosphaerella fijiensis
  Antifungal activity, Mycosphaerella fijiensis (improvement compared to DmAMP1): + (key: + indicating 1- to 5-fold improvement compared to DmAMP1; ++ indicating >5- to 10-fold improvement; +++ indicating >10-fold improvement)

## DGVKLCERPSKTWSGHCGNTKHCDKQCRSWEGAAHGACHVRNGKWKCFCYFNC (Defensin like) [L7-94]
Septoria tritici
  Antifungal activity, Septoria tritici (improvement compared to DmAMP1): + (key: + indicating 1- to 5-fold improvement compared to DmAMP1; ++ indicating >5- to 10-fold improvement; +++ indicating >10-fold improvement)
Fusarium graminearum
  Antifungal activity, Fusarium graminearum (improvement compared to DmAMP1): ++ (key: + indicating 1- to 5-fold improvement compared to DmAMP1; ++ indicating >5- to 10-fold improvement; +++ indicating >10-fold improvement)
Mycosphaerella fijiensis
  Antifungal activity, Mycosphaerella fijiensis (improvement compared to DmAMP1): + (key: + indicating 1- to 5-fold improvement compared to DmAMP1; ++ indicating >5- to 10-fold improvement; +++ indicating >10-fold improvement)
